Test results published in US12391670B2, “Functionalized aminotriazines” (LEADXPRO AG, priority 2018, dated 2025).
Read-outs that look alike come from different tables or passages of the source.

Tests used:
human A2A receptor = human A2A receptor (Homo sapiens (Human), UniProt P29274); experiment: Radioligand binding competition assay, [3H]-NECA, membranes from HEK293 cells transfected with human A2A receptor; settings: radioligand binding
Method: (§1) For all four adenosine receptors (A1, A2A, A2B and A3) filtration binding assay was performed. Radioligand binding competition assay was done in duplicates in the wells of a 96-well plate (Master Block, Greiner, 786201) containing binding buffer, receptor membrane extracts, a fixed concentration of tracer and test compound at increasing concentrations. In order to eliminate effect of buffer components, binding buffer was the same for all four receptors and contained: 50 mM Tris-HCl pH 7.4, 5 mM MgCl2, 1 mM EDTA, 150 mM NaCl, 0.1% Na-azide, and 5 U/ml adenosine-deaminase. Nonspecific binding was determined by co-incubation with 200-fold excess of cold competitor. In all radioligand binding experiments, the samples were incubated in a final volume of 0.1 ml for 60 minutes at 25° C. and then filtered over Unifilter plates (Perkin Elmer) pre-treated for 2 hours to limit tracer non-specific binding. Filters were washed five times with 0.5 ml of ice-cold washing buffer (50 mM Tris-HCl pH 7.4, 5 mM MgCl2, 1 mM EDTA) and 50 μl of Microscint 20 (Perkin Elmer) were added to each filter. The plates are incubated 15 min at room temperature on an orbital shaker and then counted with a TopCount™ for 1 min/well.
For A2A receptor the assay was performed with [^3H]-NECA and membranes from HEK293 cells transfected with human A2A receptor (Euroscreen FAST-002B).

human A2B receptor [1] = target: T1, human A2B receptor (Homo sapiens (Human), UniProt P29275); experiment: Radioligand binding competition assay, [3H]-DPCPX, membranes from HEK293 cells transfected with human A2B receptor
T1 sequence (P29275 whole entry): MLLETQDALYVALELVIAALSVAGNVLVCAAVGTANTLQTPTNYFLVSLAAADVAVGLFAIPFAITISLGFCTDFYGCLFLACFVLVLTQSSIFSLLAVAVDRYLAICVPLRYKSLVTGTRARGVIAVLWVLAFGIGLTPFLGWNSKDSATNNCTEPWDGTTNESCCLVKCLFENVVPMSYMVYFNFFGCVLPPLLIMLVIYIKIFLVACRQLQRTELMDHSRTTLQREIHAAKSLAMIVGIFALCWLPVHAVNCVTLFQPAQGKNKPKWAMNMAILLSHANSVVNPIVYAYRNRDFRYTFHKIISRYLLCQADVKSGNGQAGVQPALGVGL
Method: as §1
For A2B, the assay was carried with [^3H]-DPCPX and membranes prepared from HEK293 cells transfected with human A2B receptor (Euroscreen FAST-003B).

human A3 receptor = human A3 receptor (Homo sapiens (Human), UniProt P0DMS8); experiment: Radioligand binding competition assay, [125I]-MECA, membranes from CHO-K1 cells transfected with human A3 receptor
Sequence of human A3 receptor (P0DMS8 whole entry): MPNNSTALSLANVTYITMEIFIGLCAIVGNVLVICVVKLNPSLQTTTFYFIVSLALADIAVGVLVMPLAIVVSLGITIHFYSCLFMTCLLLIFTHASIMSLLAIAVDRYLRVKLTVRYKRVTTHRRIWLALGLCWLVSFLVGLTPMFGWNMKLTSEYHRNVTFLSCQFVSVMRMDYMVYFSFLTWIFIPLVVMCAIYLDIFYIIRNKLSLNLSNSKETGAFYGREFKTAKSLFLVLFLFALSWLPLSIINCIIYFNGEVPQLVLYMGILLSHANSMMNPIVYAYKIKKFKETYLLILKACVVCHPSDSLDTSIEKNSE
Method: as §1
For A3, the assay was carried out with [^125I]-MECA and membranes from CHO-K1 cells transfected with human A3 receptor (Euroscreen FAST-004B).

human A1 receptor = human A1 receptor (Homo sapiens (Human), UniProt P30542); experiment: Radioligand binding competition assay, [3H]-DPCPX, membranes from CHO-K1 cells transfected with human A1 receptor
Sequence of human A1 receptor (P30542 whole entry): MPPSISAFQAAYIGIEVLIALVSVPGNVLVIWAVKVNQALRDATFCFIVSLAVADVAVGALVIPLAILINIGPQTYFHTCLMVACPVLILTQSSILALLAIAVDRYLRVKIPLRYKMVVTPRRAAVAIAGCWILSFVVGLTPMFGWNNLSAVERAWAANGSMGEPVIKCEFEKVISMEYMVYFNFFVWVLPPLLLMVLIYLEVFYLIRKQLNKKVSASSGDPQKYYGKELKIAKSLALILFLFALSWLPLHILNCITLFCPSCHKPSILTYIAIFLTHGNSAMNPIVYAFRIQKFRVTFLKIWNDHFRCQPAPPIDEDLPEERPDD
Method: as §1
For A1 receptor the assay was performed with [^3H]-DPCPX and membranes from CHO-K1 cells transfected with human A1 receptor (Euroscreen FAST-00B).

human A2B receptor [2] = target: T1, human A2B receptor; experiment: cAMP assay (b), HEK293 cells expressing recombinant human A2B receptor; type: cell-based; settings: reference agonist at EC80, read-out: cAMP pIC50 (converted)
Method: (§2) Two assays have been employed, one using HEK293 with A2B receptors endogenously expressed (named cAMP assay (a) in the following) and a second one using HEK293 cells impressing recombinant human A2B receptors (named cAMP assay (b) in the following)
Dose response curves were performed in parallel with the reference compounds. 12 μl of cells were mixed with 6 μl of the test compound at increasing concentrations and then incubated 10 min. Thereafter 6 μl of the reference agonist was added at a final concentration corresponding to the historical EC80. The plates were then incubated for 30 min at room temperature. After addition of the lysis buffer and 1 hour incubation, cAMP concentrations were estimated, according to the manufacturer specification, with the HTRF kit.

[3] = target: A2B receptors endogenously expressed in HEK293 cells (Homo sapiens (Human), UniProt P29275); experiment: cAMP assay (a), HEK293 cells with A2B receptors endogenously expressed; type: cell-based; settings: stimulated with 5 μM NECA
Sequence of A2B receptors endogenously expressed in HEK293 cells (P29275 whole entry): as the sequence (P29275 whole entry) above
Method: as §2
Real-time cAMP-assays in live cells were performed in HEK293 cells stably expressing the EPAC-sensor (I. Vedel, et al., 2015, J. Biomol. Screen. 20, 849-857).
In order to test for cAMP inhibition by preferred compounds of formula I and antagonists, respectively, from this invention, endogenous A2A and A2B expression in above cell lines was exploited. To run the assay, cells were incubated in 80 μl assay buffer for 15 minutes at room temperature. The assay buffer was composed of Hanks Balanced Salt Solution (Gibco) with 20 mM HEPES, pH 7.4 and […] adenosine-deaminase. All cAMP assays were run at room temperature using a PHERAstar FSX plate reader. The FRET donor (mCerulean) was excited at 430 nm. Fluorescence emission was measured at 480 nm and 530 nm for 65 minutes (cycle time 1.45 min). Prior to stimulation fluorescence was measured for 10 min (baseline). Subsequently cells were stimulated with 5 μM NECA (5′-(N-Ethylcarboxamido)adenosine; Tocris, Cat.-No:35920-39-9). Sharply 10.15 min after stimulation the compounds were added at increasing concentrations (between 0 and 200 μM) and fluorescence was recorded for 40 min. Each compound concentration was measured in duplicates.

[4] = read-out: cAMP pIC50 (converted)

Sequence of human A2A receptor (P29274 whole entry): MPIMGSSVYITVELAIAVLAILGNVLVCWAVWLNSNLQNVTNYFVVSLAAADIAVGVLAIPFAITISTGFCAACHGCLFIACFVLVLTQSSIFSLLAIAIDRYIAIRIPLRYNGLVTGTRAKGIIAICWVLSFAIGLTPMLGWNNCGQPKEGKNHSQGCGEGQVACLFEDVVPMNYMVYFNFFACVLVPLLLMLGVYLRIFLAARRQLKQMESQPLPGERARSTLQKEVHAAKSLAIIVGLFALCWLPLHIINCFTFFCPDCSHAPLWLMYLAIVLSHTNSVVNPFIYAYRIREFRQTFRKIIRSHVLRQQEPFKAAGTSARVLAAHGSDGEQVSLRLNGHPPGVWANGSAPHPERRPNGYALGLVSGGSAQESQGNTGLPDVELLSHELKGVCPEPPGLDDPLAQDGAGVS

Row | SMILES | Human A2A Receptor pKi (human A2A receptor) | Human A2B Receptor pKi (human A2B receptor [1]) | IC50 (human A2B receptor [2]) [nM] | IC50 (human A2B receptor [1]) [nM] | also measured
1 | CC(O)c1ccc(Nc2nnc(-c3ccncc3F)c(-c3ccccc3F)n2)cn1 (stereo not shown) [Example 40, 1-(5-{[5-(2-fluorophenyl)-6-(3-fluoropyridin-4-yl)-1,2,4-triazin-3-yl]amino}pyridin-2-yl)ethan-1-ol] | 6.25 | 7.89 |  |  | 
2 | CC(C)(O)c1ccc(Nc2nnc(-c3ccncc3F)c(-c3ccccc3F)n2)cn1 [Example 38, 2-(5-{[5-(2-fluorophenyl)-6-(3-fluoropyridin-4-yl)-1,2,4-triazin-3-yl]amino}pyridin-2-yl)propan-2-ol] | 5.84 | 7.65 | 50.1 |  | Human A3 Receptor pKi (human A3 receptor): 6.42; Human A1 Receptor pKi (human A1 receptor): 6.26
3 | Cc1ccc(Nc2nnc(-c3ccncc3F)c(-c3ccccc3F)n2)cn1 [Example 21, 5-(2-fluorophenyl)-6-(3-fluoro-4-pyridyl)-N-(6-methyl-3-pyridyl)-1,2,4-triazin-3-amine] | 6 | 7.81 | 66.1 |  | 
4 | Cc1nnc(Nc2nnc(-c3ccncc3F)c(-c3cccnc3)n2)s1 [Example 6, N-(6-(3-fluoropyridin-4-yl)-5-(pyridin-3-yl)-1,2,4-triazin-3-yl)-5-methyl-1,3,4-thiadiazol-2-amine] | <4.70 | 5.37 |  | 4770 | IC50 [3]: 3980 nM; IC50 [3, 4]: 3980 nM
5 | Fc1cnccc1-c1nnc(Nc2nccs2)nc1-c1cccnc1 [Example 3, N-(6-(3-fluoropyridin-4-yl)-5-(pyridin-3-yl)-1,2,4-triazin-3-yl)thiazol-2-amine] | <4.70 | 5.95 |  | 1250 | IC50 [3]: 2000 nM; IC50 [3, 4]: 2000 nM
6 | COc1ccc(NC(=O)Nc2nnc(-c3ccncc3F)c(-c3ccccc3F)n2)cc1 [Example 29, 1-[5-(2-fluorophenyl)-6-(3-fluoro-4-pyridyl)-1,2,4-triazin-3-yl]-3-(4-methoxyphenyl)urea] |  | 6.94 |  |  | 
7 | Fc1cnccc1-c1nnc(Nc2ccc(C(F)(F)F)nc2)nc1-c1ccccc1F [Example 24, 5-(2-fluorophenyl)-6-(3-fluoro-4-pyridyl)-N-[6-(trifluoromethyl)-3-pyridyl]-1,2,4-triazin-3-amine] |  | 7.33 | 107 |  | Human A1 Receptor pKi (human A1 receptor): 5.58
8 | CC(C)(C)c1n[nH]c(Nc2nnc(-c3ccncc3F)c(-c3ccccc3F)n2)n1 [Example 46, N-(3-tert-butyl-1H-1,2,4-triazol-5-yl)-5-(2-fluorophenyl)-6-(3-fluoropyridin-4-yl)-1,2,4-triazin-3-amine] |  | 7.01 |  |  | 
9 | COc1ccc(Nc2nnc(-c3ccncc3F)c(-c3ccccc3F)n2)cn1 [Example 23, 5-(2-fluorophenyl)-6-(3-fluoro-4-pyridyl)-N-(6-methoxy-3-pyridyl)-1,2,4-triazin-3-amine] | 6.57 | 7.43 | 105 |  | 
10 | Fc1cnccc1-c1nnc(Nc2ccc(C3CC3)nc2)nc1-c1ccccc1F [Example 44, N-(6-cyclopropylpyridin-3-yl)-5-(2-fluorophenyl)-6-(3-fluoropyridin-4-yl)-1,2,4-triazin-3-amine] | 6.00 | 7.58 |  |  | 
11 | Cc1nsc(Nc2nnc(-c3ccncc3F)c(-c3cccnc3)n2)n1 [Example 5, N-(6-(3-fluoropyridin-4-yl)-5-(pyridin-3-yl)-1,2,4-triazin-3-yl)-3-methyl-1,2,4-thiadiazol-5-amine] | <4.70 | 5.38 |  | 4660 | 
12 | Fc1cnccc1-c1nnc(Nc2nc(C3CC3)n[nH]2)nc1-c1ccccc1F [Example 31, N-(3-cyclopropyl-1H-1,2,4-triazol-5-yl)-5-(2-fluorophenyl)-6-(3-fluoro-4-pyridyl)-1,2,4-triazin-3-amine] |  | 7.27 | 275 |  | Human A1 Receptor pKi (human A1 receptor): 5.00
13 | Cc1nsc(Nc2nnc(-c3ccncc3F)c(-c3ccccc3F)n2)n1 [Example 13, N-(5-(2-fluorophenyl)-6-(3-fluoropyridin-4-yl)-1,2,4-triazin-3-yl)-3-methyl-1,2,4-thiadiazol-5-amine] | <4.70 | 5.98 |  | 1170 | 
14 | O=C(Nc1nnc(-c2ccncc2F)c(-c2ccccc2F)n1)NC1CC1 [Example 35, 1-cyclopropyl-3-[5-(2-fluorophenyl)-6-(3-fluoro-4-pyridyl)-1,2,4-triazin-3-yl]urea] |  | 6.55 |  |  | 
15 | Fc1ccccc1-c1nc(Nc2nc(Cl)cs2)nnc1-c1ccnc(C(F)(F)F)c1 [Example 10, 4-chloro-N-(5-(2-fluorophenyl)-6-(2-(trifluoromethyl)pyridin-4-yl)-1,2,4-triazin-3-yl)thiazol-2-amine] | <4.70 | 6.02 |  | 1070 | 
16 | OCc1ccc(Nc2nnc(-c3ccncc3F)c(-c3ccccc3F)n2)cn1 [Example 22, [5-[[5-(2-fluorophenyl)-6-(3-fluoro-4-pyridyl)-1,2,4-triazin-3-yl]amino]-2-pyridyl]methanol] | 4.7 | 7.95 | 29.5 |  | 
17 | OCc1ccc(Nc2nnc(-c3ccncc3F)c(-c3ccccc3F)n2)cc1F [Example 37, (2-fluoro-4-{[5-(2-fluorophenyl)-6-(3-fluoropyridin-4-yl)-1,2,4-triazin-3-yl]amino}phenyl)methanol] | 6.1 | 7.84 |  |  | 
18 | Fc1cccc(Nc2nnc(-c3ccncc3F)c(-c3ccccc3F)n2)c1 [Example 12, 5-(2-fluorophenyl)-N-(3-fluorophenyl)-6-(3-fluoropyridin-4-yl)-1,2,4-triazin-3-amine] | 4.49 | 6.42 |  | 420 | IC50 (human A2A receptor): 32600 nM
19 | Fc1cnccc1-c1nnc(Nc2ccc(OCC(F)F)nc2)nc1-c1ccccc1F [Example 36, N-[6-(2,2-difluoroethoxy)pyridin-3-yl]-5-(2-fluorophenyl)-6-(3-fluoropyridin-4-yl)-1,2,4-triazin-3-amine] | 6.56 | 7.42 |  |  | 
20 | CNC(=O)Nc1nnc(-c2ccncc2F)c(-c2cccnc2)n1 [Example 7, 1-(6-(3-fluoropyridin-4-yl)-5-(pyridin-3-yl)-1,2,4-triazin-3-yl)-3-methylurea] | <4.70 | 5.25 |  | 6320 | IC50 [3]: 6920 nM; IC50 [3, 4]: 6920 nM
21 | Cc1cnc(-c2nc(Nc3cccc(F)c3)nnc2-c2ccncc2F)o1 [Example 17, N-(3-fluorophenyl)-6-(3-fluoropyridin-4-yl)-5-(5-methyloxazol-2-yl)-1,2,4-triazin-3-amine] | 5.8 | 7.17 | 324 |  | 
22 | CCc1n[nH]c(Nc2nnc(-c3ccncc3F)c(-c3ccccc3F)n2)n1 [Example 18, N-(3-ethyl-1H-1,2,4-triazol-5-yl)-5-(2-fluorophenyl)-6-(3-fluoro-4-pyridyl)-1,2,4-triazin-3-amine] |  | 6.68 |  |  | Human A1 Receptor pKi (human A1 receptor): 5.00
